Data set [1] relates to PBX1 transcript. Put plainly: BG4 RNA immunoprecipitation (RIP) followed by qRT-PCR in A375 cells. The data set is classed as cell-based, human. The method, then:
FIGS. 2A-2G are features formed by dG1 and rG1 in vitro and in cells. In (FIG. 2A), Left: CD spectra of WT and Mut dG1, and Right: CD spectra of WT and Mut rG1. CD is circular dichroism. In (FIG. 2B), Left: gel mobility assay of WT and Mut dG1, and Right: gel mobility assay of WT and Mut rG1. In (FIG. 2C), under specified conditions, fluorescence-on assay of NMM in absence of presence of dG1 or rG1, and their G/A mutant. In (FIG. 2D), the occupancy of BG4 in the PBX1 promoter region is measured in A375 cells by BG4 chromatin immunoprecipitation (ChIP), followed by qRT-PCR. In (FIG. 2E), RNA immunoprecipitation (RIP) detection is performed to show the association between BG4 and the PBX1 transcript in A375 cells, followed by qRT-PCR. In (FIG. 2F), the occupancy of BG4 in the PBX1 promoter region is measured, by the BG4 chip, in A375 cells treated with or without PDS and TMPyP4, followed by qRT-PCR. […] SEM represents the standard error of mean. *P< 0.05, **P< 0.01***P< 0.001.
In this embodiment, several methods are further employed to verify the formation of dG1 and rG1. First, circular dichroism (CD) is used to examine the molar ellipticity of dG1 and rG1 sequences (33 nt) and mutants thereof, and the mutants are designed to eliminate G4 formation. […] N-methyl mesoporphyrin IX (NMN) is the well-known fluorescent G4-specific ligand that can be used for studies of G4 formation in vitro. Both dG1 and rG1 are found to enhance the fluorescence of N N (FIG. 2C). In addition, in this embodiment, chromatin immunoprecipitation (ChIP) and RNA immunoprecipitation (RIP) detection are performed in A375 cells using the well-known G4-specific antibody BG4. […] In summary, dG1 and rG1 can fold stable G4 structures in vitro and in cells. […] Therefore, the ability of these G4-specific ligands to interact with PBX1 G4s is investigated next.
Control:mG*mT*mC*mC*mA*mC*mA*mA*mA*mC*mA*mC*mA*mA*mC*mT*mC* mC*mT*mG*). […] This example also establishes short-term cultures of patient-derived melanoma xenograft (PDX)-derived tumor cells (PDCs) (FIG. 5D). […]
In general terms: In qPCR the cycle at which signal appears reflects the starting amount.

The test system of data set [2] is PBX1. Put plainly: PBX1 mRNA and protein levels by qRT-PCR and western blot in A375 cells. The data set is classed as cell-based, human. As to the method: (§1) RNA extraction and quantitative RT-PCR detection: total RNA is extracted from cultured cells by using TRIzol (Invitrogen, USA), then is converted into cDNA by SuperScript III First-Strand Synthesis SuperMix (Invitrogen, USA). qRT-PCR detection is performed by using SYBR Green®Mix (Invitrogen, USA) in ABI 7500 (Invitrogen, USA). A relative expression quantity of RNA is calculated by using a comparative CT method.
(§2) Immunoblotting: for protein analysis of a whole-cell lysate, cells are lysed with RIPA (CWBIO, Beijing, China) buffer solution. For tumors, liquid nitrogen is first used to pulverize tissues. Then, the lysate is generated on ice with the RIPA (CWBIO, Beijing, China) buffer solution for 20 minutes, and then centrifuged at 4° C., 13000 rpm for 15 minutes. Protein-containing supernatant is transferred to the fresh microcentrifuge tube, and stored at −20° C. (short-term storage) for subsequent use. The protein is quantified by using the BIO-RAD DC protein assay. The total proteins are electrophoresed on SDS-polyacrylamide gels. Then, the proteins are transferred to polyvinylidene difluoride (PVDF) membrane. After incubation with the primary antibody overnight on the shaker at 4° C., the membrane is washed 6 times (5 minutes each time) with TBS-T (Invitrogen, USA). Then, blots are incubated with horseradish peroxidase (IRP)-conjugated secondary antibodies for 60 minutes at RT on the plate shaker. The membrane is cleaned by TBS-T (6×5 minutes). Detection on immunoreactive bands is performed by using SuperSignalmWest Pico chemiluminescence substrate kit (Thermo Fisher Scientific, USA) and Western blotting detection system (BioRad, USA). GAPDH is used as the loading control for western blotting. The intensity levels of the bands are normalized to GAPDH.

Data set [3] concerns PBX1. The experiment in a line: PBX1 mRNA and protein levels by qRT-PCR and western blot in B16-F10 cells. The data set is classed as cell-based, mouse. As to the method:
as §1, §2

Data set [4] relates to A375 cells. Put plainly: Colony forming assay, A375. The data set is classed as cell-based, human. The method, then:
(§3) Colony forming assay: for the colony forming assay, A375 and B16-F10 cells are seeded on 6-well plates with the density of 500-1000 cells. After two weeks, staining is performed by using 1% crystal violet at room temperature, rinsing is performed with PBS and tap water, and the number of colonies is counted.

Data set [5] deals with PDCs. Put plainly: Colony forming assay, patient-derived tumor cells. The data set is classed as cell-based, human. As to the method: as §3
Preparation of patient-derived tumor cells: tumor tissues of PDXs are used in basic RPMI1640 medium (Gibco, USA. Free-FBS medium). Patient-derived tumor cells (PDC) are prepared from cryopreserved xenograft fragments using the tumor isolation kit (Miltenyi Biotec, Germany), following the tumor treatment solution. PDCs are cultured as described by Bruna and Shanker et al. (6,7). PDCs are used for colony forming assays.

Data set [6] concerns B16-F10 cells. The experiment in a line: In vivo tumor metastasis assay, B16-F10 tail vein injection. On the set-up: species or system mice. The note with it: in vivo studies, summary statement. The method, then:
In vivo tumor metastasis assay: 2×10^5 B16-F10 cells are injected into the tail vein of tail vein tumor. According to solutions formulated by the NCI Animal Care and Use Committee, metastatic endpoints are determined for each experiment by maximal primary tumor burden and/or appearance of moribund mice in all treatment groups. PDS (5 mg/kg) is administered twice a day, for 16 consecutive days.
Bioluminescent tumor cell tracking: in vivo whole-animal imaging, anesthetized mice are injected intraperitoneally with 3 mg of d-luciferin (MCE, USA). Luminescence data is collected on an IVIS system (Perkin Elmer, USA). For live tissue imaging, tissues are perfused with PBS, harvested, and incubated in PBS with 1 μg/ml-1d-luciferin. Data analysis is performed using an IVIS Image software package.

For data set [7], the system named is patient-derived melanoma xenograft (PDX). Put plainly: PDX model of melanoma in NCG mice. The data set is classed as in vivo. The method, then: PDX model of melanoma: fresh tumor tissues are collected immediately after surgery, placed in RPMI 1640 medium containing penicillin/streptomycin (100 U/ml; 100 μg/ml), fungal zone (1 μg/ml) and Genta Mycin (50 μg/ml) (all from Gibco, USA) (4,5). According to the institutional review and the ethical guidelines for this study approved by the Ethics Committee of the Second Hospital of Jilin University, fresh tumor samples from patients suffering from melanoma are collected for transplantation with informed consent. The mice were kept and all procedures are performed under the approval and supervision of the Institutional Animal Care and Use Committee (IACUC) of the School of Public Health of Jilin University (Changchun, China). Necrotic tissues are excised before transplantation, and tumor tissues are minced to a size of 2×2×2 mm^3, and implanted subcutaneously in the flank of 6-week-old NCG male mice to generate first-generation (F1) PDX mice. Successfully transplanted tumor models are passaged and stored using standard methods. H&E staining is used to evaluate the morphology of patient tumor specimens and xenografts of established PDX models. Treatment with ASO Scr or ASO (intravenous injection, 20 mg/kg) is initiated when the tumor volume of the mice reached 220-280 mm^3. Tumor growth and body weight measurements are performed. Tumors are dissected at the end of treatment for further processing for RNA, protein and histological analysis.
Control:mG*mT*mC*mC*mA*mC*mA*mA*mA*mC*mA*mC*mA*mA*mC*mT*mC* mC*mT*mG*). […] This example also establishes short-term cultures of patient-derived melanoma xenograft (PDX)-derived tumor cells (PDCs) (FIG. 5D). […] To further expand the analysis, this embodiment establishes the PDX model of melanoma, and […] is administered intravenously (intravenous injection) every two days for 21 days.

The test system of data set [8] is melanoma cell line. The experiment in a line: Proliferation, migration and invasion of the melanoma cell line (summary statement). The data set is classed as cell-based. An excerpt:
The present invention detects the effect of PBX1-G4 on growth and lung metastasis of melanoma and discovers that the expression of PBX1 is positively correlated with the development of melanoma. The sequence of PBX1 is conserved in evolution and is same in mice and human beings. […] The identification of the present invention on the antisense oligonucleotide targeting the PBX1 promoter region G-quadruplex provides the new drug target and new treatment methods and ideas for development of the new generation of medicine for treating melanoma.

[9] abbreviates: western blot, normalized to GAPDH.
Setting [10] is: PDX, intravenous injection 20 mg/kg every two days for 21 days, vs PBX1 ASO scramble.

On to “ASO: ASO specific for the complementary sequence of rG1 in the 5′ UTR of PBX1: mG*mG*mG*G*T*mT*mG*mC*mG*mG*mG*mG*mT*mG*mA*G*G*G*T*mG* (antisense GGGGTTGCGGGGTGAGGGTG; chemistry not given here)”, for which the “PBX1 transcript pulled down by BG4” value in data set [1] is “increases”. Besides, in data set [2] (qRT-PCR), the “mRNA level of PBX1” value was “effectively reduce”. Further, the “protein level of PBX1” value in data set [2] (setting [9]) was “effectively reduce”. The “mRNA level of PBX1” value in data set [3] (qRT-PCR) is given as “effectively reduce”. Besides, the “protein level of PBX1” value in data set [3] (setting [9]) is listed as “effectively reduce”. For the same substance, the colony formation result in data set [4] is on record as “decreases”. In data set [5], the colony formation ability result is “decreases”. Besides, the “lung metastasis of melanoma” value in data set [6] is listed as “almost completely inhibits”. The “expression of proliferation marker Ki67 in tumors” value in data set [7] (PDX) is “significant downregulation”. Moreover, in data set [7] (setting [10]), the tumor growth entry is “significant reduction” and the tumor weight result is reported as “significant reduction”. Further, the “expression of PBX1 in tumors” value in data set [7] (PDX, qRT-PCR and IHC staining) was “significant downregulation”. The growth of melanoma result in data set [7] (in vivo studies, summary statement) is listed as “almost completely inhibits”. In data set [8], the “invasion capability of the melanoma cell line” value is “obviously inhibits”, the “migration capability of the melanoma cell line” value is listed as “obviously inhibits” and the “proliferation capability of the melanoma cell line” value is given as “obviously inhibits”.

The values are drawn from patent US20240076667A1, “APPLICATION OF ANTISENSE OLIGONUCLEOTIDE TARGETING PBX1 PROMOTER REGION G-QUADRUPLEX IN PREPARATION OF MEDICINE FOR TREATING MELANOMA” (JILIN UNIVERSITY, priority 2022, published 2024).
